Data as given in the NIST ThermoML archive (doi:10.1021/je800224k).

Conditions: Liquid

CCCCCCn1cc[n+](C)c1.F[B-](F)(F)F [1-hexyl-3-methylimidazolium tetrafluoroborate]
Conditions | mass density [kg/m3]
293.15 K, 101.33 kPa, Vibrating tube method | 1148.5
313.15 K, 101.33 kPa, Vibrating tube method | 1134.7
313.3 K, 10000 kPa, Bellows volumetry | 1139
313.3 K, 20000 kPa, Bellows volumetry | 1144
313.3 K, 30000 kPa, Bellows volumetry | 1149
313.3 K, 40000 kPa, Bellows volumetry | 1154
313.3 K, 50000 kPa, Bellows volumetry | 1158
313.3 K, 60000 kPa, Bellows volumetry | 1162
313.3 K, 70000 kPa, Bellows volumetry | 1167
313.3 K, 80000 kPa, Bellows volumetry | 1171
313.3 K, 90000 kPa, Bellows volumetry | 1174
313.3 K, 100000 kPa, Bellows volumetry | 1178
313.3 K, 110000 kPa, Bellows volumetry | 1182
313.3 K, 120000 kPa, Bellows volumetry | 1186
313.3 K, 130000 kPa, Bellows volumetry | 1189
313.3 K, 140000 kPa, Bellows volumetry | 1193
313.3 K, 150000 kPa, Bellows volumetry | 1196
313.3 K, 160000 kPa, Bellows volumetry | 1199
313.3 K, 170000 kPa, Bellows volumetry | 1202
313.3 K, 180000 kPa, Bellows volumetry | 1206
313.3 K, 190000 kPa, Bellows volumetry | 1209
313.3 K, 200000 kPa, Bellows volumetry | 1212
332.5 K, 10000 kPa, Bellows volumetry | 1126
332.5 K, 20000 kPa, Bellows volumetry | 1131
332.5 K, 30000 kPa, Bellows volumetry | 1136
332.5 K, 40000 kPa, Bellows volumetry | 1141
332.5 K, 50000 kPa, Bellows volumetry | 1146
332.5 K, 60000 kPa, Bellows volumetry | 1150
332.5 K, 70000 kPa, Bellows volumetry | 1154
332.5 K, 80000 kPa, Bellows volumetry | 1159
332.5 K, 90000 kPa, Bellows volumetry | 1163
332.5 K, 100000 kPa, Bellows volumetry | 1167
332.5 K, 110000 kPa, Bellows volumetry | 1170
332.5 K, 120000 kPa, Bellows volumetry | 1174
332.5 K, 130000 kPa, Bellows volumetry | 1178
332.5 K, 140000 kPa, Bellows volumetry | 1181
332.5 K, 150000 kPa, Bellows volumetry | 1185
332.5 K, 160000 kPa, Bellows volumetry | 1188
332.5 K, 170000 kPa, Bellows volumetry | 1192
332.5 K, 180000 kPa, Bellows volumetry | 1195
332.5 K, 190000 kPa, Bellows volumetry | 1198
332.5 K, 200000 kPa, Bellows volumetry | 1201
333.15 K, 101.33 kPa, Vibrating tube method | 1121
352.6 K, 10000 kPa, Bellows volumetry | 1113
352.6 K, 20000 kPa, Bellows volumetry | 1118
352.6 K, 30000 kPa, Bellows volumetry | 1123
352.6 K, 40000 kPa, Bellows volumetry | 1128
352.6 K, 50000 kPa, Bellows volumetry | 1133
352.6 K, 60000 kPa, Bellows volumetry | 1138
352.6 K, 70000 kPa, Bellows volumetry | 1142
352.6 K, 80000 kPa, Bellows volumetry | 1147
352.6 K, 90000 kPa, Bellows volumetry | 1151
352.6 K, 100000 kPa, Bellows volumetry | 1155
352.6 K, 110000 kPa, Bellows volumetry | 1159
352.6 K, 120000 kPa, Bellows volumetry | 1163
352.6 K, 130000 kPa, Bellows volumetry | 1167
352.6 K, 140000 kPa, Bellows volumetry | 1170
352.6 K, 150000 kPa, Bellows volumetry | 1174
352.6 K, 160000 kPa, Bellows volumetry | 1177
352.6 K, 170000 kPa, Bellows volumetry | 1181
352.6 K, 180000 kPa, Bellows volumetry | 1184
352.6 K, 190000 kPa, Bellows volumetry | 1187
352.6 K, 200000 kPa, Bellows volumetry | 1191
353.15 K, 101.33 kPa, Vibrating tube method | 1107.6
372.7 K, 10000 kPa, Bellows volumetry | 1099
372.7 K, 20000 kPa, Bellows volumetry | 1105
372.7 K, 30000 kPa, Bellows volumetry | 1111
372.7 K, 40000 kPa, Bellows volumetry | 1116
372.7 K, 50000 kPa, Bellows volumetry | 1121
372.7 K, 60000 kPa, Bellows volumetry | 1126
372.7 K, 70000 kPa, Bellows volumetry | 1131
372.7 K, 80000 kPa, Bellows volumetry | 1135
372.7 K, 90000 kPa, Bellows volumetry | 1139
372.7 K, 100000 kPa, Bellows volumetry | 1144
372.7 K, 110000 kPa, Bellows volumetry | 1148
372.7 K, 120000 kPa, Bellows volumetry | 1152
372.7 K, 130000 kPa, Bellows volumetry | 1156
372.7 K, 140000 kPa, Bellows volumetry | 1160
372.7 K, 150000 kPa, Bellows volumetry | 1163
372.7 K, 160000 kPa, Bellows volumetry | 1167
372.7 K, 170000 kPa, Bellows volumetry | 1170
372.7 K, 180000 kPa, Bellows volumetry | 1174
372.7 K, 190000 kPa, Bellows volumetry | 1177
372.7 K, 200000 kPa, Bellows volumetry | 1180
393 K, 10000 kPa, Bellows volumetry | 1087
393 K, 20000 kPa, Bellows volumetry | 1093
393 K, 30000 kPa, Bellows volumetry | 1098
393 K, 40000 kPa, Bellows volumetry | 1104
393 K, 50000 kPa, Bellows volumetry | 1109
393 K, 60000 kPa, Bellows volumetry | 1114
393 K, 70000 kPa, Bellows volumetry | 1119
393 K, 80000 kPa, Bellows volumetry | 1124
393 K, 90000 kPa, Bellows volumetry | 1128
393 K, 100000 kPa, Bellows volumetry | 1133
393 K, 110000 kPa, Bellows volumetry | 1137
393 K, 120000 kPa, Bellows volumetry | 1141
393 K, 130000 kPa, Bellows volumetry | 1145
393 K, 140000 kPa, Bellows volumetry | 1149
393 K, 150000 kPa, Bellows volumetry | 1153
393 K, 160000 kPa, Bellows volumetry | 1157
393 K, 170000 kPa, Bellows volumetry | 1160
393 K, 180000 kPa, Bellows volumetry | 1164
393 K, 190000 kPa, Bellows volumetry | 1167
393 K, 200000 kPa, Bellows volumetry | 1171
413 K, 10000 kPa, Bellows volumetry | 1074
413 K, 20000 kPa, Bellows volumetry | 1080
413 K, 30000 kPa, Bellows volumetry | 1086
413 K, 40000 kPa, Bellows volumetry | 1092
413 K, 50000 kPa, Bellows volumetry | 1098
413 K, 60000 kPa, Bellows volumetry | 1103
413 K, 70000 kPa, Bellows volumetry | 1108
413 K, 80000 kPa, Bellows volumetry | 1113
413 K, 90000 kPa, Bellows volumetry | 1118
413 K, 100000 kPa, Bellows volumetry | 1122
413 K, 110000 kPa, Bellows volumetry | 1126
413 K, 120000 kPa, Bellows volumetry | 1131
413 K, 130000 kPa, Bellows volumetry | 1135
413 K, 140000 kPa, Bellows volumetry | 1139
413 K, 150000 kPa, Bellows volumetry | 1143
413 K, 160000 kPa, Bellows volumetry | 1147
413 K, 170000 kPa, Bellows volumetry | 1150
413 K, 180000 kPa, Bellows volumetry | 1154
413 K, 190000 kPa, Bellows volumetry | 1158
413 K, 200000 kPa, Bellows volumetry | 1161
432.9 K, 10000 kPa, Bellows volumetry | 1062
432.9 K, 20000 kPa, Bellows volumetry | 1068
432.9 K, 30000 kPa, Bellows volumetry | 1075
432.9 K, 40000 kPa, Bellows volumetry | 1081
432.9 K, 50000 kPa, Bellows volumetry | 1086
432.9 K, 60000 kPa, Bellows volumetry | 1092
432.9 K, 70000 kPa, Bellows volumetry | 1097
432.9 K, 80000 kPa, Bellows volumetry | 1102
432.9 K, 90000 kPa, Bellows volumetry | 1107
432.9 K, 100000 kPa, Bellows volumetry | 1112
432.9 K, 110000 kPa, Bellows volumetry | 1116
432.9 K, 120000 kPa, Bellows volumetry | 1121
432.9 K, 130000 kPa, Bellows volumetry | 1125
432.9 K, 140000 kPa, Bellows volumetry | 1129
432.9 K, 150000 kPa, Bellows volumetry | 1133
432.9 K, 160000 kPa, Bellows volumetry | 1137
432.9 K, 170000 kPa, Bellows volumetry | 1141
432.9 K, 180000 kPa, Bellows volumetry | 1145
432.9 K, 190000 kPa, Bellows volumetry | 1148
432.9 K, 200000 kPa, Bellows volumetry | 1152
452.6 K, 10000 kPa, Bellows volumetry | 1049
452.6 K, 20000 kPa, Bellows volumetry | 1056
452.6 K, 30000 kPa, Bellows volumetry | 1063
452.6 K, 40000 kPa, Bellows volumetry | 1069
452.6 K, 50000 kPa, Bellows volumetry | 1075
452.6 K, 60000 kPa, Bellows volumetry | 1081
452.6 K, 70000 kPa, Bellows volumetry | 1086
452.6 K, 80000 kPa, Bellows volumetry | 1092
452.6 K, 90000 kPa, Bellows volumetry | 1097
452.6 K, 100000 kPa, Bellows volumetry | 1101
452.6 K, 110000 kPa, Bellows volumetry | 1106
452.6 K, 120000 kPa, Bellows volumetry | 1111
452.6 K, 130000 kPa, Bellows volumetry | 1115
452.6 K, 140000 kPa, Bellows volumetry | 1119
452.6 K, 150000 kPa, Bellows volumetry | 1123
452.6 K, 160000 kPa, Bellows volumetry | 1128
452.6 K, 170000 kPa, Bellows volumetry | 1131
452.6 K, 180000 kPa, Bellows volumetry | 1135
452.6 K, 190000 kPa, Bellows volumetry | 1139
452.6 K, 200000 kPa, Bellows volumetry | 1143
472.5 K, 10000 kPa, Bellows volumetry | 1037
472.5 K, 20000 kPa, Bellows volumetry | 1045
472.5 K, 30000 kPa, Bellows volumetry | 1052
472.5 K, 40000 kPa, Bellows volumetry | 1058
472.5 K, 50000 kPa, Bellows volumetry | 1064
472.5 K, 60000 kPa, Bellows volumetry | 1070
472.5 K, 70000 kPa, Bellows volumetry | 1076
472.5 K, 80000 kPa, Bellows volumetry | 1081
472.5 K, 90000 kPa, Bellows volumetry | 1087
472.5 K, 100000 kPa, Bellows volumetry | 1092
472.5 K, 110000 kPa, Bellows volumetry | 1096
472.5 K, 120000 kPa, Bellows volumetry | 1101
472.5 K, 130000 kPa, Bellows volumetry | 1105
472.5 K, 140000 kPa, Bellows volumetry | 1110
472.5 K, 150000 kPa, Bellows volumetry | 1114
472.5 K, 160000 kPa, Bellows volumetry | 1118
472.5 K, 170000 kPa, Bellows volumetry | 1122
472.5 K, 180000 kPa, Bellows volumetry | 1126
472.5 K, 190000 kPa, Bellows volumetry | 1130
472.5 K, 200000 kPa, Bellows volumetry | 1134
